Measurements from patent publication US20080103195A1, “COMPOUNDS FROM ANTRODIA CAMPHORATA FOR INHIBITING THE GROWTH OF CANCER TUMOR CELLS” (priority 2006, published 2008).
Converted amounts (≈) assume the structure as drawn.

Columns and labels:
[1] = system: Hep 3B human liver cancer cells; test: In vitro assay of anti-tumor activity of liver cancer (MTT assay); assay type: cell-based; conditions: Hep3B, 48 h
Description: (§1) According to anti-tumor agents screening model of National Cancer Institute (NCI) of the United States National Institutes of Health, the assay is processed by adding 4,7-dimethoxy-5-methy-1,3-benzodioxole into the culture medium of Hep 3B and Hep G2 human liver cancer tumor cells respectively.
(§2) Doses of ethyl alcohol extract of Antrodia camphorate (the control group) were respectively 30, 10, 3, 1, 0.3, 0.1, and 0.03 μg/ml for each well and 4,7-dimethoxy-5-methy-1,3-benzodioxole (the experimental group) were respectively 30, 10, 3, 1, 0.3, 0.1, and 0.03 μg/ml for each well incubated at 37° C., 5% CO2 for 48 hours. 2.5 mg/ml MTT dye is added to each well without light and incubated for 4 hours, then treated with 100 μl lysis buffer to stop the reaction.

[2] = system: Hep G2 human liver cancer cells; test: as above; assay type: cell-based; conditions: HepG2, 48 h
Description: as §1, §2

[3] = system: MCF-7 human breast cancer cells; test: In vitro assay of anti-tumor activity of breast cancer (MTT assay); assay type: cell-based; conditions: MCF7, 48 h
Text: (§3) According to anti-tumor agents screening model of National Cancer Institute (NCI) of the United States National Institutes of Health, the assay is processed by adding 4,7-dimethoxy-5-methy-1,3-benzodioxole into the culture medium of MCF-7 human tumor cells and MDA-MB-231 human tumor cells respectively. The assay of tumor cell viability can be evaluated by using the conventional MTT assay, and MCF-7 and MDA-MB-231 are human breast cancer tumor cell lines.
(§4) MTT assay is a conventional assay used to analyze the cell proliferation, percentage of viable cells, and cytotoxicity. MTT (3-(4,5-dimethylthiazole-2-yl)-2,5-diphenyl tetrazolium bromide) is a yellow dye, and is metabolized only in living cells by the mitochondrial succinate-tetrazolium reductase system to produce blue violet insoluble formazan products, thereby providing a measure of the number of viable cells upon generation of formazan products in viable cells.
as §2, with “camphorata” for “camphorate”

[4] = system: MDA-MB-231 human breast cancer cells; test: as above; assay type: cell-based; conditions: MDA-MB-231, 48 h
Text: as §3, §4
as §2, with “camphorata” for “camphorate”

[5] = system: LNCaP human prostate cancer cells; test: In vitro activity assay of adjuvant treatment of prostate cancer tumor cells using Taxol (MTT assay); assay type: cell-based
Description: (§5) Doses of 4,7-dimethoxy-5-methy-1,3-benzodioxole were 30, 10, 3, 1, 0.3, 0.1, and 0.03 μg/ml (the experimental group) and 0 μg/ml of 4,7-dimethoxy-5-methy-1,3-benzodioxole (the control group) for each well incubated at 37° C., 5% CO2 for 48 hours. 2.5 mg/ml MTT dye is added to each well without light and incubated for 4 hours, then treated with 100 μl lysis buffer to stop the reaction.

[6] = system: LNCaP human prostate cancer cells; test: In vitro assay of anti-tumor activity of prostate cancer (MTT assay); assay type: cell-based; conditions: 48 h
Description: (§6) According to anti-tumor agents screening model of National Cancer Institute (NCI) of the United States National Institutes of Health, the assay is processed by adding 4,7-dimethoxy-5-methy-1,3-benzodioxole into the culture medium of LNCaP and DU-145 human prostate cancer tumor cells respectively.
as §2, with “camphorata” for “camphorate”, “1,” for “1, 0.3, 0.1,”, “0.3” for “0.03”

[7] = system: DU-145 human prostate cancer cells; test: as above; assay type: cell-based; conditions: DU-145, 48 h
Description: as §6
as §2, with “camphorata” for “camphorate”, “1,” for “1, 0.3, 0.1,”, “0.3” for “0.03”

[8] = system: Hep 3B human liver cancer cells; conditions: 0.0043 μg/ml Lovastatin alone (control group)
Description: (§7) First, Hep 3B human liver cancer cells and Hep G2 human liver cancer cells were respectively cultured in culture medium supplemented with fetal bovine serum for 24 hours. The proliferative cells were washed with PBS once, and treated with one-fold trypsin/EDTA solution. After centrifuged at 1,200 rpm for 5 min, the supernatant was removed and the cell pellet was transferred to new tubes and treated with 10 ml medium to suspend the cells again. Before the assay, the Hep 3B cell line was treated with 0.0043 μg/ml Lovastatin for 72 hours and the Hep G2 cell line was treated with 0.0017 μg/ml Taxol for 72 hours, and then plated in 96 well microplates. Doses of 4,7-dimethoxy-5-methy-1,3-benzodioxole were 30, 10, 3, 1, 0.3, 0.1, and 0.03 μg/ml (the experimental group) and 0 μg/ml of 4,7-dimethoxy-5-methy-1,3-benzodioxole (the control group) for each well incubated at 37° C., 5% CO2 for 48 hours. 2.5 mg/ml MTT dye is added to each well without light and incubated for 4 hours, then treated with 100 μl lysis buffer to stop the reaction. Subsequently, absorption was measured on an enzyme immunoassay analyzer at 570 nm for the measurement of viable cell number. The concentration of the drug measured at 50% of the cell death (i.e. IC50 value) was determined and calculated.

[9] = system: MCF-7 human breast cancer cells; test: In vitro activity assay of adjuvant treatment of breast cancer tumor cells using Taxol (MTT assay); assay type: cell-based; conditions: MCF-7, 0.0017 μg/ml Taxol alone (control group, 0 μg/ml benzodioxole)
Description: as §5

[10] = system: MDA-MB-231 human breast cancer cells; test: as above; assay type: cell-based; conditions: MDA-MB-231, 0.0017 μg/ml Taxol alone (control group, 0 μg/ml benzodioxole)
Description: as §5

[11] = system: DU-145 human prostate cancer cells; test: In vitro activity assay of adjuvant treatment of prostate cancer tumor cells using Taxol (MTT assay); assay type: cell-based; conditions: DU-145, 0.0043 μg/ml Taxol alone (control group)
Description: as §5

[12] = system: Hep G2 human liver cancer cells; conditions: Hep G2, 0.0017 μg/ml Taxol alone (control group)
Description: as §7

Structure (SMILES): COc1cc(C)c(OC)c2c1OCO2 [4,7-dimethoxy-5-methy-1,3-benzodioxole]
- IC50 [1]: 0.016 mg/L (≈ 0.0815 µM)
- IC50 [2]: 2.46 mg/L (≈ 12.5 µM)
- IC50 [3]: 1.72 mg/L (≈ 8.77 µM)
- IC50 [4]: 0.992 mg/L (≈ 5.06 µM)
- IC50 ([5]; Homo sapiens): 1.16 mg/L
- IC50 [6]: 4.46 mg/L (≈ 22.7 µM)
- IC50 [7]: 2.21 mg/L (≈ 11.3 µM)

Structure (SMILES): CC[C@H](C)C(=O)O[C@H]1C[C@@H](C)C=C2C=C[C@H](C)[C@H](CC[C@@H]3C[C@@H](O)CC(=O)O3)[C@H]21 [Lovastatin]
- The ratio of viable cells (%) [8]: 69 ± 1%

Structure (SMILES): CC(=O)O[C@H]1C(=O)[C@@]2(C)[C@H]([C@H](OC(=O)c3ccccc3)[C@]3(O)C[C@H](OC(=O)[C@H](O)[C@@H](NC(=O)c4ccccc4)c4ccccc4)C(C)=C1C3(C)C)[C@]1(OC(C)=O)CO[C@@H]1C[C@@H]2O [Taxol]
- The ratio of viable cells (%) [9]: 69 ± 1%
- The ratio of viable cells (%) [10]: 86 ± 1%
- The ratio of viable cells (%) ([5]; 0.0017 μg/ml Taxol alone (control group)): 55 ± 1%
- The ratio of viable cells (%) [11]: 71 ± 1%
- The ratio of viable cells (%) [12]: 86 ± 1%
